Publication PMC10477347, “O-methyltransferase-like enzyme catalyzed diazo installation in polyketide biosynthesis” (Nature Communications, 2023)

How the values were obtained:
[1] = biological target: AlpH, O-methyltransferase-like protein from the kinamycin biosynthetic gene cluster; assay: crystal structure; apo-AlpH, hanging drop vapor diffusion at 16 °C; protein in 20 mM Tris-HCl pH 7.5, 100 mM NaCl, 1 mM DTT, 1 mM EDTA; reservoir 0.03 M citric acid, 0.07 M Bis-Tris propane pH 7.6, 20% PEG3350; molecular replacement, 1.87 Å
[2] = biological target: T1, AlpJ (Streptomyces ambofaciens, UniProt Q6VMI5); assay: HPLC of products […] and […] from one-pot reaction with AlpK; type: biochemical; settings: NADH, FAD, pH 7.5, 30 °C
T1 construct: pET28a, Ni-NTA purified from E. coli BL21(DE3); gene amplified from kinamycin BAC 3C2
T1 sequence (Q6VMI5 1-232): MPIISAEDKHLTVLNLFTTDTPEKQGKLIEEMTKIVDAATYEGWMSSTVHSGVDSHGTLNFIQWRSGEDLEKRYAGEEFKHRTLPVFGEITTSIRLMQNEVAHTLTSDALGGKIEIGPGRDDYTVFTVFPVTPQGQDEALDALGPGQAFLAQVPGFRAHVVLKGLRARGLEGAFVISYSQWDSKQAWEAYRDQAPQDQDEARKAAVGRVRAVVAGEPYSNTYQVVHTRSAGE

[3] = biological target: T2, AlpH (Streptomyces ambofaciens, UniProt Q6VMJ4); assay: surface plasmon resonance (Biacore 8K, AlpH immobilized on CM5); type: binding
T2 construct: N-terminal His6-tagged, pET28a, E. coli BL21(DE3); homodimer in the apo crystal; gene amplified from kinamycin BAC 3C2
T2 sequence (Q6VMJ4 entry or part of it): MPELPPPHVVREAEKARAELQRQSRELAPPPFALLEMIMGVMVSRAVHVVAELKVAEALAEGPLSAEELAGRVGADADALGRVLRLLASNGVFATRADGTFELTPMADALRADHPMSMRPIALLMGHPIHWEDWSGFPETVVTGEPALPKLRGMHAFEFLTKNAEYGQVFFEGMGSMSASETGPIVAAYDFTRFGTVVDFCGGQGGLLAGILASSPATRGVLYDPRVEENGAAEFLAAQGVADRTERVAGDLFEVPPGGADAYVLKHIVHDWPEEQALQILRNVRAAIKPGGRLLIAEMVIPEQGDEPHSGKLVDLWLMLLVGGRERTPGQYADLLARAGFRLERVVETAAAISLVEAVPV
Excerpt: surface plasmon resonance (Biacore 8K, AlpH immobilized on CM5) on AlpH | Surface plasmon resonance analysis of AlpH and gluN2H3 also identified a specific interaction between them

Q: How did the stoichiometry N [1] turn out when “AlpH, O-methyltransferase-like protein from the kinamycin biosynthetic gene cluster (enzyme)” was run?
A: 2

Q: `Cc1cc(O)c2c3c(c(O)cc2c1)C(=O)c1c(O)cccc1C3=O` [DHR] was tested. Which “HPLC of products 1 and 6 from one-pot reaction with AlpK” value [2] did it give?
A: prepared in situ by incubating AlpJ and AlpK with DHR and NADH

Q: With `NNC(=O)CC[C@H](N)C(=O)O` [gluN2H3] as the compound, how does the Kd [3] read?
A: 114 nM
